The first series deals with T1, Polyunsaturated fatty acid lipoxygenase ALOX15 (Oryctolagus cuniculus, UniProt P12530).
T1 sequence (P12530 whole entry): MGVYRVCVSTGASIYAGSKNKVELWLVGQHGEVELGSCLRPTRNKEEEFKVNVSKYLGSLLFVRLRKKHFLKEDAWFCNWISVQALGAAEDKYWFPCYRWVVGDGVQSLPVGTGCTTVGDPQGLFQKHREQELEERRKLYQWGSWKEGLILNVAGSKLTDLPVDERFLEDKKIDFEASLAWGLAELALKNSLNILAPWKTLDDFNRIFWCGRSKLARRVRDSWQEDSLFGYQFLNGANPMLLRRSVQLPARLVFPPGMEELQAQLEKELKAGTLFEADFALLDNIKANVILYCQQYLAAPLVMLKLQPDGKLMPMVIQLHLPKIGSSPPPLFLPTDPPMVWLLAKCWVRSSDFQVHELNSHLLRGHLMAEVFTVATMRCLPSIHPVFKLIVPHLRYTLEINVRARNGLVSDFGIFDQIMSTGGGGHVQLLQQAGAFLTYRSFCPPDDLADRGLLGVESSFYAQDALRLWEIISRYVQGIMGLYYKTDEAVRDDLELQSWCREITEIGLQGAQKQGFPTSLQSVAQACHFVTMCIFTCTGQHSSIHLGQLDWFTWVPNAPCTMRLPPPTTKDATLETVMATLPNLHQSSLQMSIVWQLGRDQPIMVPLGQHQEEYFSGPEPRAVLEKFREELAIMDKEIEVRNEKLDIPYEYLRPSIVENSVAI
The experiment in a line: biochemical. Conditions: reticulocytes. Type of series: tissue-based, Reticulocytes.
Chain of 5-hydroxytryptamine receptor 2B (P41595 whole entry): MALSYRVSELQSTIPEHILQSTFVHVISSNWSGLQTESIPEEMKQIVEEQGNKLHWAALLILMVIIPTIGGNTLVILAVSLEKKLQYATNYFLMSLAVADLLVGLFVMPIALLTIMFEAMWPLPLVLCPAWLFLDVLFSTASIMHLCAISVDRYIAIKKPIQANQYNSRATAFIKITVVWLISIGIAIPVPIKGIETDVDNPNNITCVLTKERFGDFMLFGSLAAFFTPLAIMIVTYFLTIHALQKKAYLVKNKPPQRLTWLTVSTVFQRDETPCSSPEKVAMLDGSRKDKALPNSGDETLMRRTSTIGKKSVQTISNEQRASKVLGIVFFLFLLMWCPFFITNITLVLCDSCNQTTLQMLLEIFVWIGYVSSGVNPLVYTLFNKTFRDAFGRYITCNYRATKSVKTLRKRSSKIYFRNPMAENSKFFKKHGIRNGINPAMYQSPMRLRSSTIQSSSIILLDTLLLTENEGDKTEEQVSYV
As usually defined, the IC50 is the concentration at which inhibition is half-maximal. For the compound `Oc1cccc2cccnc12` [OXYQUINOLINE], the IC50 entry is on record as “Not Active”.

As for `O=c1cc(-c2ccccc2)oc2c1ccc1ccccc12` [ALPHA-NAPHTHOFLAVONE], the 50% inhibitory concentration (IC50) result is given as “Not Active”.

`CN(C)CCCC1(c2ccc(F)cc2)OCc2cc(C#N)ccc21` (stereo not drawn) [CITALOPRAM]: the half-maximal inhibitory concentration (IC50) entry is listed as “Not Active”.

The next series has as its target T2, C-X-C chemokine receptor type 2 (Homo sapiens, UniProt P25025). Also: in other assays of this panel Not Active means under 50% inhibition at 10 µM.
T2 sequence (P25025 whole entry): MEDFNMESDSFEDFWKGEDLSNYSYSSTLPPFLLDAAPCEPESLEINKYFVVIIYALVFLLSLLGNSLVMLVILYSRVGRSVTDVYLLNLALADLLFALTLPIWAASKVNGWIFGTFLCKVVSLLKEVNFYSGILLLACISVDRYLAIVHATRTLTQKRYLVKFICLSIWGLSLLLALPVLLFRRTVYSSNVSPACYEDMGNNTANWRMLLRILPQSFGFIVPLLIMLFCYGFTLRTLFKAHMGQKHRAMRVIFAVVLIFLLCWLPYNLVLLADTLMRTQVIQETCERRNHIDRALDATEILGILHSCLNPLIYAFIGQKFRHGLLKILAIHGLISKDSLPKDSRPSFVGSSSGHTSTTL
Test: not given
It is filed as cell membranes, Membrane. Conditions: cho-k1.
For `Oc1cccc2cccnc12` [OXYQUINOLINE], the IC50 result is “Not Active”.

In the case of `O=c1cc(-c2ccccc2)oc2c1ccc1ccccc12` [ALPHA-NAPHTHOFLAVONE], the IC50 result is “Not Active”.

Regarding `CN(C)CCCC1(c2ccc(F)cc2)OCc2cc(C#N)ccc21` (stereo not drawn) [CITALOPRAM], the IC50 result is recorded as “Not Active”.

The target in the next series is T3, Alpha-1B adrenergic receptor (Rattus norvegicus, UniProt P15823).
T3 sequence (P15823 whole entry): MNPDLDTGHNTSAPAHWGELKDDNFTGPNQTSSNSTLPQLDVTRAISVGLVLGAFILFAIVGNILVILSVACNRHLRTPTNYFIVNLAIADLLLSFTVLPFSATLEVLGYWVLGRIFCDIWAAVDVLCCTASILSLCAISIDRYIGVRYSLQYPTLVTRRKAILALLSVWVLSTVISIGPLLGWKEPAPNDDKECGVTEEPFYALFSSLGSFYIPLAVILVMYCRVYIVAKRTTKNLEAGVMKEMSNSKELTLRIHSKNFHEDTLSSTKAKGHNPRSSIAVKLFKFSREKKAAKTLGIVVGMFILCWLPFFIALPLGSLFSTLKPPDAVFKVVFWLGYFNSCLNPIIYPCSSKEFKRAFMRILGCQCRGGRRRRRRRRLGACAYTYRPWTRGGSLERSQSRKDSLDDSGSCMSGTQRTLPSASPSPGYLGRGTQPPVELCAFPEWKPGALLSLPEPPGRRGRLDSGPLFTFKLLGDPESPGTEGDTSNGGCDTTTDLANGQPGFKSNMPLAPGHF
The experiment in a line: DRUGMATRIX: Alpha-1B adrenergic receptor radioligand binding (ligand: prazosin). Type of series: cell membranes, Wistar, Liver, Membrane. Conditions: Not Active = under 50% inhibition at 10 µM.
Regarding `Oc1cccc2cccnc12` [OXYQUINOLINE], the half-inhibitory concentration (IC50) entry is “Not Active”.

Consider `O=c1cc(-c2ccccc2)oc2c1ccc1ccccc12` [ALPHA-NAPHTHOFLAVONE], for which the IC50 entry is on record as “Not Active”.

The same series, now with this note: Not Active = under 50% inhibition at 10 µM; read-out: IC50.
As to `CN(C)CCCC1(c2ccc(F)cc2)OCc2cc(C#N)ccc21` (stereo not drawn) [CITALOPRAM], the IC50 was 3.29 µM.

The same series, now with this note: Not Active = under 50% inhibition at 10 µM; read-out: Ki.
The Ki is the equilibrium dissociation constant of an inhibitor or competing ligand from its target. Consider `CN(C)CCCC1(c2ccc(F)cc2)OCc2cc(C#N)ccc21` (stereo not drawn) [CITALOPRAM], for which the Ki worked out at 1820 nM.

The next series has as its target 5-hydroxytryptamine receptor 2B (Homo sapiens, UniProt P41595). Also: in other assays of this panel Not Active means under 50% inhibition at 10 µM.
Test: not given
Type of series: cell membranes, CHO-K1, Membrane. The following applies: cho-k1.
Regarding `Oc1cccc2cccnc12` [OXYQUINOLINE], the IC50 entry is reported as “Not Active”.

`O=c1cc(-c2ccccc2)oc2c1ccc1ccccc12` [ALPHA-NAPHTHOFLAVONE]: the IC50 entry was “Not Active”.

The same series, now with this note: read-out: IC50.
In the case of `CN(C)CCCC1(c2ccc(F)cc2)OCc2cc(C#N)ccc21` (stereo not drawn) [CITALOPRAM], the IC50 was 1840 nM.

The series is the same for the next values; noted with them: read-out: Ki.
Turning to `CN(C)CCCC1(c2ccc(F)cc2)OCc2cc(C#N)ccc21` (stereo not drawn) [CITALOPRAM], the Ki is 1170 nM.

The target of a further series is Histamine H2 receptor (Homo sapiens, UniProt P25021). Also: in other assays of this panel Not Active means under 50% inhibition at 10 µM.
Chain of Histamine H2 receptor (P25021 whole entry): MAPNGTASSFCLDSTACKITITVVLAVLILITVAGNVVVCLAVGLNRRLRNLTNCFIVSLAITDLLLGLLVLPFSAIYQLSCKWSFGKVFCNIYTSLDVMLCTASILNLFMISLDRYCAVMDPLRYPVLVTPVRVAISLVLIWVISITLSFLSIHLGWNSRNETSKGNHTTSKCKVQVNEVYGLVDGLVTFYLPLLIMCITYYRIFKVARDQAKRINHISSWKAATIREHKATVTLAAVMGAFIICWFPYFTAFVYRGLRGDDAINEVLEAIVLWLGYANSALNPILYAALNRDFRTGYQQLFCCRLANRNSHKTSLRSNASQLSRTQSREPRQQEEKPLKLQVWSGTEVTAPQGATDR
Test: not given
Conditions: cho-k1. It is filed as cell membranes, CHO-K1, Membrane.
`Oc1cccc2cccnc12` [OXYQUINOLINE]: the IC50 entry is “Not Active”.

As to `O=c1cc(-c2ccccc2)oc2c1ccc1ccccc12` [ALPHA-NAPHTHOFLAVONE], the IC50 result is recorded as “Not Active”.

As for `CN(C)CCCC1(c2ccc(F)cc2)OCc2cc(C#N)ccc21` (stereo not drawn) [CITALOPRAM], the IC50 entry is reported as “Not Active”.

In the next series the target is Cytochrome P450 2E1 (Homo sapiens, UniProt P05181). Also: in other assays of this panel Not Active means under 50% inhibition at 10 µM.
Chain of Cytochrome P450 2E1 (P05181 whole entry): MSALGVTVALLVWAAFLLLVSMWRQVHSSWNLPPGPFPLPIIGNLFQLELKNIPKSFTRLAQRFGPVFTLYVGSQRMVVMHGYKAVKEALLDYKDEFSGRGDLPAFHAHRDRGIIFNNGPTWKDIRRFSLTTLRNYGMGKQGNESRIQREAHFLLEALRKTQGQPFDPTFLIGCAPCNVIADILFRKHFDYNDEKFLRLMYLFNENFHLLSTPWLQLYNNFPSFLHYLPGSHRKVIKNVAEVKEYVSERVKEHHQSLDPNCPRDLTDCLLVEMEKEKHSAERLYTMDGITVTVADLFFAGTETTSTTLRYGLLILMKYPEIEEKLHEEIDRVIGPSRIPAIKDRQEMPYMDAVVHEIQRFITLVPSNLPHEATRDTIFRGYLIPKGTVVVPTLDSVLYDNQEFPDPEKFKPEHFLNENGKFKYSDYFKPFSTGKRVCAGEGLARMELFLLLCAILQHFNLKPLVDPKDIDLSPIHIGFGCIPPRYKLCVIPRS
Test: not given
The following applies: bti-tn-5b1-4.
Take `Oc1cccc2cccnc12` [OXYQUINOLINE]: the IC50 entry was “Not Active” and the Ki result is on record as “Not Active”.

In the case of `O=c1cc(-c2ccccc2)oc2c1ccc1ccccc12` [ALPHA-NAPHTHOFLAVONE], the IC50 entry is recorded as “Not Active” and the inhibitory constant (Ki) result is “Not Active”.

Regarding `CN(C)CCCC1(c2ccc(F)cc2)OCc2cc(C#N)ccc21` (stereo not drawn) [CITALOPRAM], the IC50 entry is on record as “Not Active” and the Ki result is reported as “Not Active”.

System in another series: not listed separately
Put plainly: DRUGMATRIX: GABAA, Chloride Channel, TBOB radioligand binding (ligand: [3H] TBOB). It is filed as cell membranes, Rattus norvegicus, Wistar, Cerebral cortex, Membrane. The following applies: Not Active = under 50% inhibition at 10 µM.
As for `Oc1cccc2cccnc12` [OXYQUINOLINE], the IC50 result is listed as “Not Active” and the Ki entry was “Not Active”.

As to `O=c1cc(-c2ccccc2)oc2c1ccc1ccccc12` [ALPHA-NAPHTHOFLAVONE], the IC50 entry is recorded as “Not Active” and the Ki entry was “Not Active”.

Regarding `CN(C)CCCC1(c2ccc(F)cc2)OCc2cc(C#N)ccc21` (stereo not drawn) [CITALOPRAM], the IC50 entry was “Not Active” and the Ki entry is on record as “Not Active”.

The target in another series is 5-hydroxytryptamine receptor 6 (Homo sapiens, UniProt P50406). Also: in other assays of this panel Not Active means under 50% inhibition at 10 µM.
Chain of 5-hydroxytryptamine receptor 6 (P50406 whole entry): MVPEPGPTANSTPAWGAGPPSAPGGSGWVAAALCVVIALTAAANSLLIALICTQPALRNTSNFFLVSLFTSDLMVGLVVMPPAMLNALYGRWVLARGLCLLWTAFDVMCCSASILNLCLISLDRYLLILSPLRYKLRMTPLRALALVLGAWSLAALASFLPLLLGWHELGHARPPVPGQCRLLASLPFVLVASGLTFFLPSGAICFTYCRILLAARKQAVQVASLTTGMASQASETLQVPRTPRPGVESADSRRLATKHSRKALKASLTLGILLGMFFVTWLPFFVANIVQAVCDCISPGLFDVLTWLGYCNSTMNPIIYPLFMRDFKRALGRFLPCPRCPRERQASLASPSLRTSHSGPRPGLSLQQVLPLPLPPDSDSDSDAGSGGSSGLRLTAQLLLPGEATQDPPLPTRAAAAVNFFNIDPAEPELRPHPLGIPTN
Test: not given
Type of series: cell membranes, HeLa, Membrane. Conditions: hela.
As to `Oc1cccc2cccnc12` [OXYQUINOLINE], the concentration for half-maximal inhibition (IC50) result is recorded as “Not Active”.

With `O=c1cc(-c2ccccc2)oc2c1ccc1ccccc12` [ALPHA-NAPHTHOFLAVONE], the IC50 result was “Not Active”.

Take `CN(C)CCCC1(c2ccc(F)cc2)OCc2cc(C#N)ccc21` (stereo not drawn) [CITALOPRAM]: the IC50 result was “Not Active”.

The target of a further series is D(1A) dopamine receptor (Homo sapiens, UniProt P21728). Put plainly: DRUGMATRIX: Dopamine D1 radioligand binding (ligand: [3H] SCH-23390). It is filed as cell membranes, CHO, Membrane. Conditions: cho; Not Active = under 50% inhibition at 10 µM.
Chain of D(1A) dopamine receptor (P21728 whole entry): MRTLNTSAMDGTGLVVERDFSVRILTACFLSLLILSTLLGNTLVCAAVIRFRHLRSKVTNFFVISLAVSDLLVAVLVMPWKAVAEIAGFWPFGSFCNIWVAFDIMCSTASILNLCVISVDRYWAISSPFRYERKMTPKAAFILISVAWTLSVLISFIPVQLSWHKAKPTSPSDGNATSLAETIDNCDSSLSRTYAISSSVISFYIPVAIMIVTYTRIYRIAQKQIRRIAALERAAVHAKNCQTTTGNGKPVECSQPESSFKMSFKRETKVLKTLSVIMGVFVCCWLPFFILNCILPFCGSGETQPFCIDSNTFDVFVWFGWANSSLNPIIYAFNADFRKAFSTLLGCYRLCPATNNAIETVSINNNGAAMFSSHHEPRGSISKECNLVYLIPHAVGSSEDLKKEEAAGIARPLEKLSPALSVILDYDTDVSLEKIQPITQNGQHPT
For `Oc1cccc2cccnc12` [OXYQUINOLINE], the IC50 entry was “Not Active”.

In the case of `O=c1cc(-c2ccccc2)oc2c1ccc1ccccc12` [ALPHA-NAPHTHOFLAVONE], the IC50 result is reported as “Not Active”.

On to `CN(C)CCCC1(c2ccc(F)cc2)OCc2cc(C#N)ccc21` (stereo not drawn) [CITALOPRAM], for which the IC50 entry is reported as “Not Active”.

The target of another series is Cytochrome P450 2D6 (Homo sapiens, UniProt P10635). Also: in other assays of this panel Not Active means under 50% inhibition at 10 µM.
Chain of Cytochrome P450 2D6 (P10635 whole entry): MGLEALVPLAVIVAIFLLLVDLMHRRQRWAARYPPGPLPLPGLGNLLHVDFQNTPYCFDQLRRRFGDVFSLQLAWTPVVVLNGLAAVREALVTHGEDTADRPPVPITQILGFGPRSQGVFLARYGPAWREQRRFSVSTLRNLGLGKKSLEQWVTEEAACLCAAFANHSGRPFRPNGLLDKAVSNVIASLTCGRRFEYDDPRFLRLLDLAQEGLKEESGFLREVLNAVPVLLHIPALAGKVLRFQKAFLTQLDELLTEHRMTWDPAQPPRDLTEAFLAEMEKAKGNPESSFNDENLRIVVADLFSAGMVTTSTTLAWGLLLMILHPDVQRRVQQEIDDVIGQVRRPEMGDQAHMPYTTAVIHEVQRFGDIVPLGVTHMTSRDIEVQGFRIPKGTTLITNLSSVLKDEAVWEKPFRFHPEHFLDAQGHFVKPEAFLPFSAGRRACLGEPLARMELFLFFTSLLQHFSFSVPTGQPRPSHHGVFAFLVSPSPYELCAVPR
Test: not given
The following applies: bti-tn-5b1-4.
On to `Oc1cccc2cccnc12` [OXYQUINOLINE], for which the IC50 entry was “Not Active” and the Ki entry is on record as “Not Active”.

With `O=c1cc(-c2ccccc2)oc2c1ccc1ccccc12` [ALPHA-NAPHTHOFLAVONE], the IC50 entry was “Not Active” and the inhibitory constant (Ki) result was “Not Active”.

In the case of `CN(C)CCCC1(c2ccc(F)cc2)OCc2cc(C#N)ccc21` (stereo not drawn) [CITALOPRAM], the IC50 result was “Not Active” and the Ki result is on record as “Not Active”.

System in a further series: not listed separately
Put plainly: DRUGMATRIX: Calcium Channel Type L, Benzothiazepine radioligand binding (ligand: [3H] Diltiazem). Conditions: Not Active = under 50% inhibition at 10 µM. It is filed as cell membranes, Rattus norvegicus, Wistar, Brain, Membrane.
Take `Oc1cccc2cccnc12` [OXYQUINOLINE]: the IC50 entry is listed as “Not Active” and the inhibition constant (Ki) result is “Not Active”.

As to `O=c1cc(-c2ccccc2)oc2c1ccc1ccccc12` [ALPHA-NAPHTHOFLAVONE], the IC50 entry is “Not Active” and the inhibition constant Ki result is recorded as “Not Active”.

The series is the same for the next values; noted with them: Not Active = under 50% inhibition at 10 µM; read-out: IC50.
With `CN(C)CCCC1(c2ccc(F)cc2)OCc2cc(C#N)ccc21` (stereo not drawn) [CITALOPRAM], the IC50 stood at 1790 nM.

Still in this series, the particulars now being: Not Active = under 50% inhibition at 10 µM; read-out: Ki.
As for `CN(C)CCCC1(c2ccc(F)cc2)OCc2cc(C#N)ccc21` (stereo not drawn) [CITALOPRAM], the Ki came out at 1590 nM.

In another series the target is Beta-3 adrenergic receptor (Homo sapiens, UniProt P13945). The experiment in a line: DRUGMATRIX: Adrenergic beta3 radioligand binding (ligand: [125I] Cyanopindolol). Type of series: cell membranes, HEK293, Membrane. The following applies: hek293; Not Active = under 50% inhibition at 10 µM.
Chain of Beta-3 adrenergic receptor (P13945 whole entry): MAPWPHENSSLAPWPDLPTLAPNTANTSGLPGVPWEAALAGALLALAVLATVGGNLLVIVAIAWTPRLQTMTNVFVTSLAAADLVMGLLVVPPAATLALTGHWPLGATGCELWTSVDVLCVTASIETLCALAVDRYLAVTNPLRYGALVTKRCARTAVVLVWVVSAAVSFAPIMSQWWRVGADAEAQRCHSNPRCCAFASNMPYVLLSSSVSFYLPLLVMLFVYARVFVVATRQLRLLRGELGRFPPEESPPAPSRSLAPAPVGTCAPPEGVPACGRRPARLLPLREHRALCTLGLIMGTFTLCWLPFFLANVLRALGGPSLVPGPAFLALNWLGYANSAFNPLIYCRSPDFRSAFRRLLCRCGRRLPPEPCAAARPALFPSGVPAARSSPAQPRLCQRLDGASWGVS
With `Oc1cccc2cccnc12` [OXYQUINOLINE], the IC50 entry was “Not Active”.

For `O=c1cc(-c2ccccc2)oc2c1ccc1ccccc12` [ALPHA-NAPHTHOFLAVONE], the IC50 result is reported as “Not Active”.

With `CN(C)CCCC1(c2ccc(F)cc2)OCc2cc(C#N)ccc21` (stereo not drawn) [CITALOPRAM], the IC50 result is “Not Active”.

Another series addresses T4, Adenosine receptor A3 (Homo sapiens, UniProt P0DMS8).
T4 sequence (P0DMS8 whole entry): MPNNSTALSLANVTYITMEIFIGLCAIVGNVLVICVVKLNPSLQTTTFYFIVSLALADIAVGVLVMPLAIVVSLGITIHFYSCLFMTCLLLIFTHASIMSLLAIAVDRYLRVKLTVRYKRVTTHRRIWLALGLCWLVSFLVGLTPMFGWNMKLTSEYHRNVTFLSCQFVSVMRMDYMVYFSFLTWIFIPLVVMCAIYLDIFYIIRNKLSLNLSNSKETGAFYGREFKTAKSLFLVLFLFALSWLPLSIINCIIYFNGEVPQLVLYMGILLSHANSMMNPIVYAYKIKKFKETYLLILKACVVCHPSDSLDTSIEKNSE
Test: not given
It is filed as cell membranes, CHO-K1, Membrane. Conditions: cho-k1.
Turning to `Oc1cccc2cccnc12` [OXYQUINOLINE], the 50% inhibitory concentration (IC50) result is reported as “Not Active”.

In the case of `O=c1cc(-c2ccccc2)oc2c1ccc1ccccc12` [ALPHA-NAPHTHOFLAVONE], the IC50 entry was “Not Active”.

Turning to `CN(C)CCCC1(c2ccc(F)cc2)OCc2cc(C#N)ccc21` (stereo not drawn) [CITALOPRAM], the IC50 result is “Not Active”.

For the origin of these results see ChEMBL document CHEMBL1909046, “DrugMatrix in vitro pharmacology data”.
